{"source": "patent US20040258668A1", "about": "(priority 2001, published 2004)", "key": {"[1]": {"tested_on": "LLC-MK2 cells infected with SeV18+SEAP/ΔF-GFP", "experiment": "LDH release (cell damage) from SeV-infected LLC-MK2 cells", "details": "for cell damage (LDH release): agents added two days after infection, at the concentration tested", "description": "(§1) LLC-MK2 (monkey kidney-derived cells) were seeded into 6-well plates at a concentration of 5×10^5 cells/well, and then cultured in MEM (Gibco-BRL, Rockville, Md.) media containing 10% fetal bovine serum (FBS: BioWhittaker, Walkersville, Md.) at 37° C. for 24 hours in a 5% CO2 incubator. Cells were washed with PBS and infected with F-deleted SeV encoding secretion-type alkaline phosphatase (SEAP)) and green fluorescence protein (GFP) genes (SeV18+SEAP/ΔF-GFP: FIG. 1) at MOI=3. […] After infection, cell culture was continued in MEM media without serum. […] Media from each culture was collected and subsequently replaced with fresh media containing the same content every two days. Heme agglutination activity (HA activity) was measured as an indicator of virion formation; lactose dehydrogenase (LDH) quantification was measured as an indicator of cell damage; and SEAP activity was measured as an indicator of the expression level of genes carried on the vector.\n(§2) HA activity was measured using the method described by Kato et al., (Kato, A. et al. , Genes Cells 1, 569-579 (1996)). That is, virus-containing media was subjected to two-fold serial dilution in a 96 round bottom well plate, such that each well contained 50 ul samples. A 50 ul solution of preserved chicken blood (COSMO BIO Co., Ltd., Tokyo, Japan), diluted to 1% with PBS, was added to each well and mixed. The mixture was incubated at 4° C. for one hour. Agglutination of red blood cells was observed, and HA activity was calculated by selecting the highest virus dilution in which agglutination was still observed. Additionally, 1 HA U was considered to be equal to 1×10^6 viruses, and values were shown as a number of viruses. […] LDH quantification was conducted using a Cytotoxicity Detection Kit (Roche, Basel, Switzerland) according to the methodin the kit. […] SEAP activities were measured using a Reporter Assay Kit-SEAP (TOYOBO, Osaka, Japan) according to kit method.\n(§3) That is, LLC-MK2 was plated in a 6-well plate at a concentration of 5×10^5 cells/well, and incubated in MEM media containing 10% fetal bovine serum at 37° C. for 24 hours in a 5% CO2 incubator. […] After infection, culture was continued in MEM media without serum. […] Cultured media was recovered every two days, and at this time fresh media, either with or without 5 mM aspirin, was added. The cultures were treated with aspirin for either 0, 2, 4, 6, or 8 days, and then examined. The recovered culture media was analyzed for HA activity, LDH quantification, and SEAP activity. GFP expression and cell damage were also periodically examined using fluorescence microscopy.\n(§4) The experiment was conducted as described in Example 1: LLC-MK2 was plated onto a 6-well plate at a concentration of 5×10^5 cells/well, and incubated in MEM media containing 10% fetal bovine serum at 37° C. for 24 hours in a 5% CO2 incubator. […] After infection, cells were cultured in MEM media without serum for two days, then cultured in MEM media (without serum) containing agents at the recorded concentrations. Cultured media was collected every two days and replaced with a same volume of fresh media. HA activity analysis and LDH quantitative analysis were performed on recovered culture media. GFP expression and cell damage were also periodically examined using fluorescence microscopy."}, "[2]": {"tested_on": "Sendai virus (SeV) vector SeV18+SEAP/ΔF-GFP", "experiment": "HA activity (virion formation) in culture media of SeV-infected LLC-MK2 cells", "details": "for SeV transcription and replication (HA activity): agents added two days after infection, SeV18+SEAP/ΔF-GFP or SeV18+/ΔF-GFP, MOI=3; for SeV transcription and replication with NO-associated agents: agent added two days after infection", "description": "as §1, §2, §3, §4"}, "[3]": {"tested_on": "LLC-MK2 cells infected with SeV18+SEAP/ΔF-GFP", "experiment": "GFP expression and cell damage by fluorescence microscopy", "details": "5 mM aspirin", "description": "LLC-MK2 (monkey kidney-derived cells) were seeded into 6-well plates at a concentration of 5×10^5 cells/well, and then cultured in MEM (Gibco-BRL, Rockville, Md.) media containing 10% fetal bovine serum (FBS: BioWhittaker, Walkersville, Md.) at 37° C. for 24 hours in a 5% CO2 incubator. Cells were washed with PBS and infected with F-deleted SeV encoding secretion-type alkaline phosphatase (SEAP)) and green fluorescence protein (GFP) genes (SeV18+SEAP/ΔF-GFP: FIG. 1) at MOI=3. […] After infection, cell culture was continued in MEM media without serum. Two days after infection, the media was replaced with MEM media (without serum) containing 0.625, 1.25, 2.5, and 5 mM of aspirin, or no aspirin. […] Heme agglutination activity (HA activity) was measured as an indicator of virion formation; lactose dehydrogenase (LDH) quantification was measured as an indicator of cell damage; and SEAP activity was measured as an indicator of the expression level of genes carried on the vector.\nGFP expression level and cell damage were also periodically observed using fluorescence microscopy.\nThat is, LLC-MK2 was plated in a 6-well plate at a concentration of 5×10^5 cells/well, and incubated in MEM media containing 10% fetal bovine serum at 37° C. for 24 hours in a 5% CO2 incubator. […] The recovered culture media was analyzed for HA activity, LDH quantification, and SEAP activity. […]"}, "[4]": {"tested_on": "SEAP gene carried on SeV18+SEAP/ΔF-GFP", "description": "LLC-MK2 (monkey kidney-derived cells) were seeded into 6-well plates at a concentration of 5×10^5 cells/well, and then cultured in MEM (Gibco-BRL, Rockville, Md.) media containing 10% fetal bovine serum (FBS: BioWhittaker, Walkersville, Md.) at 37° C. for 24 hours in a 5% CO2 incubator. Cells were washed with PBS and infected with F-deleted SeV encoding secretion-type alkaline phosphatase (SEAP)) and green fluorescence protein (GFP) genes (SeV18+SEAP/ΔF-GFP: FIG. 1) at MOI=3. […] After infection, cell culture was continued in MEM media without serum. Two days after infection, the media was replaced with MEM media (without serum) containing 0.625, 1.25, 2.5, and 5 mM of aspirin, or no aspirin. Media from each culture was collected and subsequently replaced with fresh media containing the same content every two days.\nSEAP activities were measured using a Reporter Assay Kit-SEAP (TOYOBO, Osaka, Japan) according to kit method."}, "[5]": {"experiment": "Aspirin toxicity (LD50, estimated toxicity limit)", "assay_type": "in vivo", "details": "⅙ of LD50"}, "[6]": {"tested_on": "Vesicular Stomatitis virus (VSV)", "details": "Chen et al., Virology 276 (2000); cited from earlier work"}, "[7]": {"tested_on": "Cytomegarovirus", "details": "Albrecht et al. (1987); cited from earlier work"}, "[8]": {"details": "5 mM aspirin, regardless of length of treatment"}, "[9]": {"details": "0.625-5 mM aspirin added two days after infection"}}, "note": "Read-outs that look alike come from different tables or passages of the source.", "data": [{"molecule": "O=C(O)Cc1ccccc1Nc1c(Cl)cccc1Cl", "note": "[Diclofenac sodium]", "values": [{"measurement": "cell damage (LDH release)", "setting": "[1]", "value": "enhanced cell damage"}, {"measurement": "SeV transcription and replication (HA activity)", "setting": "[2]", "value": "suppressed SeV transcription and replication"}]}, {"molecule": "CC(=O)Oc1ccccc1C(=O)O", "note": "[aspirin, acetylsalicylic acid]", "values": [{"measurement": "nature of suppression of SeV transcription and replication", "setting": "[3]; after withdrawal", "value": "transient"}, {"measurement": "GFP expression and cell damage during aspirin treatment", "setting": "[3]; treatment 0-8 days", "value": "GFP expression is low and cell damage is not observed"}, {"measurement": "cell damage (LDH)", "setting": "[1]; 5 mM aspirin", "value": "Almost no cell damage was observed"}, {"measurement": "time after end of aspirin treatment until LDH increases", "setting": "[1]; [8]", "value": "four"}, {"measurement": "LDH release", "setting": "[1]; [9]", "value": "concentration-dependent decrease in LDH release"}, {"measurement": "cell damage (LDH release)", "setting": "[1]", "value": "reducing cytotoxicity"}, {"measurement": "HA activity (virion formation)", "setting": "[2]; 5 mM aspirin added two days after infection, MOI=3, LLC-MK2", "value": "suppressed the increase in HA activity"}, {"measurement": "time after end of aspirin treatment until HA activity and virion formation increase", "setting": "[2]; [8]", "value": "two"}, {"measurement": "HA activity during aspirin treatment", "setting": "[2]; 5 mM aspirin, treatment 0, 2, 4, 6 or 8 days", "value": "increase in HA activity was low during aspirin treatment"}, {"measurement": "SeV transcription and replication (HA activity)", "setting": "[2]", "value": "suppressed SeV transcription and replication"}, {"measurement": "SEAP activity", "setting": "[4]; 5 mM aspirin", "value": "most significant decrease in activity"}, {"measurement": "SEAP activity", "setting": "[4]; [9]", "value": "concentration-dependent decrease in SEAP activity"}, {"measurement": "estimated toxicity limit", "setting": "[5]", "value": 300, "unit": "mg/kg"}, {"measurement": "multiplication of VSV", "setting": "[6]", "value": "suppressed the multiplication of the Vesicular Stomatitis virus (VSV)"}]}, {"molecule": "CC(C(=O)O)c1ccc(-c2ccccc2)c(F)c1", "note": "(centres unmarked) [Flurbiprofen]", "values": [{"measurement": "cell damage (LDH release)", "setting": "[1]", "value": "only moderately reduced cell damage"}, {"measurement": "SeV transcription and replication (HA activity)", "setting": "[2]", "value": "suppressed SeV transcription and replication"}]}, {"molecule": "CC(C(=O)O)c1cccc(C(=O)c2ccccc2)c1", "note": "(centres unmarked) [Ketoprofen]", "values": [{"measurement": "cell damage (LDH release)", "setting": "[1]", "value": "reduced cell damage"}, {"measurement": "SeV transcription and replication (HA activity)", "setting": "[2]", "value": "suppressed SeV transcription and replication"}]}, {"molecule": "O=C(NCCO[N+](=O)[O-])c1cccnc1", "note": "[nicorandil]", "values": [{"measurement": "SeV transcription and replication with NO-associated agents", "setting": "[2]", "value": "did not significantly suppress transcription and replication"}]}, {"molecule": "COc1ccc2c(c1)c(CC(=O)O)c(C)n2C(=O)c1ccc(Cl)cc1", "note": "[indomethacin, Indomethacin]", "values": [{"measurement": "cell damage (LDH release)", "setting": "[1]", "value": "only moderately reduced cell damage"}, {"measurement": "SeV transcription and replication (HA activity)", "setting": "[2]", "value": "suppressed SeV transcription and replication"}]}, {"molecule": "COc1ccc(Cc2nccc3cc(OC)c(OC)cc23)cc1OC", "note": "[Papaverin]", "values": [{"measurement": "Cytomegarovirus multiplication", "setting": "[7]", "value": "suppress Cytomegarovirus multiplication"}, {"measurement": "cell damage (LDH release)", "setting": "[1]", "value": "enhanced cell damage"}, {"measurement": "SeV transcription and replication (HA activity)", "setting": "[2]", "value": "suppressed SeV transcription and replication"}]}, {"molecule": "O=[N+]([O-])O[C@H]1CO[C@H]2[C@@H]1OC[C@H]2O[N+](=O)[O-]", "note": "[isosorbide dinitrate]", "values": [{"measurement": "SeV transcription and replication with NO-associated agents", "setting": "[2]", "value": "did not significantly suppress transcription and replication"}]}, {"molecule": "Cc1cccc(Nc2ccccc2C(=O)O)c1C", "note": "[Mefenamic acid]", "values": [{"measurement": "cell damage (LDH release)", "setting": "[1]", "value": "enhanced cell damage"}, {"measurement": "SeV transcription and replication (HA activity)", "setting": "[2]", "value": "suppressed SeV transcription and replication"}]}]}
